Read-outs that look alike come from different tables or passages of the source.
Assays:
aromatase = conditions: read-out: Aromatase inhibition IC50, cited from earlier work
Bcl-2 = Bcl-2 inhibition assay; type: cell-based, human; conditions: lung (A-549) cancer cells, compound at IC50
Procedure: 4.2.8. Bcl-2 inhibition assay
Mix all reagents thoroughly without foaming before use. Wash the microwells twice with approximately 300 μL Wash Buffer per well with thorough aspiration of microwell contents between washes. Take caution not to scratch the surface of the microwells. After the last wash, empty the wells and tap microwell strips on absorbent pad or paper towel to remove excess Wash Buffer. Use the microwell strips immediately after washing or place upside down on a wet absorbent paper for not longer than 15 minutes. […] Add 100 μL of Sample […]
Diluent in duplicate to all standard wells and to the blank wells. Prepare standard (1:2 dilution) in duplicate ranging from 32 ng/mL to 0.5 ng/mL. Add 100 μL of Sample Diluent, in duplicate, to the blank wells. Add 80 μL of Sample Diluent, in duplicate, to the sample wells. Add 20 μL of each Sample, in duplicate, to the designated wells. Add 50 μL of diluted biotin-conjugate to all wells, including the blank wells. Cover with a plate cover and incubate at room temperature, on a microplate shaker at 100 rpm if available, for 2 hours. Remove plate cover and empty the wells.
Wash microwell strips 3 times as described in step 2. Add 100 μL of diluted Streptavidin-HRP to all wells, including the blank wells. Cover with a plate cover and incubate at room temperature, on a microplate shaker at 100 rpm if available, for 1 hour. Remove plate cover and empty the wells.
Wash microwell strips 3 times as described in step 2. Proceed to the next step. Pipette 100 μl of mixed TMB Substrate Solution to all wells, including the blanks. Incubate the microwell strips at room temperature (18° to 25°C) for about 15 minutes, if available on a rotator set at 100 rpm.
Avoid direct exposure to intense light. The point, at which the substrate reaction is stopped, is often determined by the ELISA reader. Many ELISA readers record absorbance only up to 2.0
O.D. Therefore, the color development within individual microwells must be watched by the person running the assay and the substrate reaction stopped before positive wells are no longer properly detectable. Stop the enzyme reaction by quickly pipetting 100 μL of Stop Solution into each well, including the blank wells. It is important that the Stop Solution is spread quickly and uniformly throughout the microwells to completely inactivate the enzyme. Results must be read immediately after the Stop Solution is added or within one hour i f the microwell strips are stored at 2 - 8°C in the dark. Read absorbance of each microwell on a spectrophotometer using 450 nm as the primary wavelength.

Bax = Bax activation assay; type: cell-based, human; conditions: lung (A-549) cancer cells, compound at IC50
Procedure: Cells were obtained from American Type Culture Collection, cells were grown in RPMI 1640 containing 10% fetal bovine serum at 37°C, stimulated with the compounds to be tested for caspase8, and lysed with Cell Extraction Buffer. This lysate was diluted in Standard Diluent Buffer over the range of the assay and measured for human active caspase-8 content. […]
4.2.7. Bax activation assay
Bring all reagents, except the human Bax-α Standard, to room temperature for at least 30 minutes prior to opening. The human Bax-α Standard solution should not be left at room temperature for more than 10 minutes. All standards, controls and samples should be run in duplicate. Refer to the Assay Layout Sheet to determine the number of wells to be used and put any remaining wells with the desiccant back into the pouch and seal the ziploc. Store unused wells at 4 °C. Pipet 100 μL of Assay Buffer into the S0 (0 pg/mL standard) wells. Pipet 100 μL of Standards #1 through #6 into the appropriate wells. Pipet 100 μL of the Samples into the appropriate wells. Tap the plate gently to mix the contents. Seal the plate and incubate at room temperature on a plate shaker for 1 hour at ~500 rpm. Empty the contents of the wells and wash by adding 400 μL of wash solution to every well. Repeat the wash 4 more times for a total of 5 washes. After the final wash, empty or aspirate the wells and firmly tap the plate on a lint free paper towel to remove any remaining wash buffer.
Pipet 100 μL of yellow Antibody into each well, except the Blank. Seal the plate and incubate at room temperature on a plate shaker for 1 hour at ~500 rpm. Empty the contents of the wells and wash by adding 400 μL of wash solution to every well. Repeat the wash 4 more times for a total of 5 washes. After the final wash, empty or aspirate the wells and firmly tap the plate on a lint free paper towel to remove any remaining wash buffer. Add 100 μL of blue Conjugate to each well, except the Blank. Seal the plate and incubate at room temperature on a plate shaker for 30 minutes […]
Pipet 100 μL of Substrate Solution into each well. Incubate for 30 minutes at room temperature on a plate shaker at ~500 rpm. Pipet 100 μL Stop Solution to each well. Blank the plate reader against the Blank wells, read the optical density at 450 nm. Calculate the average net Optical Density (OD) bound for each standard and sample by subtracting the average Blank OD from the average OD for each standard and sample. Using linear graph paper, plot the Average Net OD for each standard versus Bax concentration in each standard. Approximate a straight line through the points.
The concentration of Bax in the unknowns can be determined by interpolation. […]

O=S(=O)(Cc1ccccc1)Nc1ccc2[nH]ccc2c1 [derivative IX]
IC50 (aromatase; indole aryl sulfonamide series, ref Fantacuzzi et al., 2020): 160 nM

COc1ccc(S(=O)(=O)NCCc2c(C(c3ccc(O)cc3)c3[nH]c4ccccc4c3CCNS(=O)(=O)c3ccc(OC)cc3)[nH]c3ccccc23)cc1 [compound VIII]
IC50 (aromatase; bis-/tris-indole sulfonamide series, ref Pingaew et al., 2018): 700 nM

CN[C@@H]1C[C@H]2O[C@@](C)([C@@H]1OC)n1c3ccccc3c3c4c(c5c6ccccc6n2c5c31)C(=O)NC4 [Staurosporine, reference compound]
Bcl-2 Conc (Bcl-2): 1.00 ng/mL | Bax Conc (Bax): 288 ± 2 pg/mL

N#Cc1c(-c2ccccc2)[nH]c2ccccc12 [compound VII]
IC50 (aromatase; 2-aryl indole series, ref Prior et al., 2017): 1610 nM

From article PMC11414412, “Design and synthesis new indole-based aromatase/iNOS inhibitors with apoptotic antiproliferative activity” (Frontiers in Chemistry, 2024)
